molecular target: MYT1 protein (Homo sapiens (Human), UniProt Q99640); test: Test for binding to ATP binding site of MYT1 (Kinase Tracer 178 / Eu-Anti-GST antibody TR-FRET); conditions: ATP binding site of MYT1, 30 minutes at room temperature
Sequence (Q99640 whole entry): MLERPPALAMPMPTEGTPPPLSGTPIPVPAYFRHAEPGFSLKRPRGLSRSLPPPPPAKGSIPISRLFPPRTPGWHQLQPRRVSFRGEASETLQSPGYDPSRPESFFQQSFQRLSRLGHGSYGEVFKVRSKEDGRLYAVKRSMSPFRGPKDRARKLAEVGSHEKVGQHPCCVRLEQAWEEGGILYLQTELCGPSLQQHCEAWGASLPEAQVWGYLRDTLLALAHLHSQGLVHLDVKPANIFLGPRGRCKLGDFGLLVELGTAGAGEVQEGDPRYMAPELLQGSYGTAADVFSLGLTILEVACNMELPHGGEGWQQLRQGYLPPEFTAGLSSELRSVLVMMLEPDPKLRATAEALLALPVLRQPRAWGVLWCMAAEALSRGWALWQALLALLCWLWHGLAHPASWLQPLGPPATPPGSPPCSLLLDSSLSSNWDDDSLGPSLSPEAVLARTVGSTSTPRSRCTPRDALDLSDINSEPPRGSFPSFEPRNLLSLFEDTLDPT

Row | Compound | IC50 [nM]
1 | CC(C)CCOc1cc2c(-c3ccc(F)c4[nH]ncc34)c(N)c(=O)[nH]c2c2cccnc12 [Compound C10, 3-Amino-4-(7-fluoro-1H-indazol-4-yl)-6-(3-methylbutoxy)-1H-1,7-phenanthrolin-2-one] | 2.3
2 | Nc1c(-c2ccc(F)c3[nH]ncc23)c2cc(OCC3CC3)c3ncccc3c2[nH]c1=O [Compound C11, 3-Amino-6-(cyclopropylmethoxy)-4-(7-fluoro-1H-indazol-4-yl)-1H-1,7-phenanthrolin-2-one] | 1.4
3 | Nc1c(-c2ccc(F)c3[nH]ncc23)c2cc(O[C@H]3CCOC3)c3ncccc3c2[nH]c1=O [Compound C12, 3-Amino-4-(7-fluoro-1H-indazol-4-yl)-6-[(3S)-oxolan-3-yl]oxy-1H-1,7-phenanthrolin-2-one] | 2.2
4 | COCCOc1cc2c(-c3ccc(F)c4[nH]ncc34)c(N)c(=O)[nH]c2c2cccnc12 [Compound C14, 3-Amino-4-(7-fluoro-1H-indazol-4-yl)-6-(2-methoxyethoxy)-1H-1,7-phenanthrolin-2-one] | 2.5
5 | Nc1c(-c2ccc(F)c3[nH]ncc23)c2cc(OCC(F)(F)F)c3ncccc3c2[nH]c1=O [Compound C15, 3-Amino-4-(7-fluoro-1H-indazol-4-yl)-6-(2,2,2-trifluoroethoxy)-1H-1,7-phenanthrolin-2-one] | 2.6
6 | Nc1c(-c2ccc(F)c3[nH]ncc23)c2cc(OCC(F)F)c3ncccc3c2[nH]c1=O [Compound C16, 3-Amino-6-(2,2-difluoroethoxy)-4-(7-fluoro-1H-indazol-4-yl)-1H-1,7-phenanthrolin-2-one] | 1.1
7 | Nc1c(-c2ccc(F)c3[nH]ncc23)c2cc(OC3CCCCC3)c3ncccc3c2[nH]c1=O [Compound C17, 3-Amino-6-cyclohexyloxy-4-(7-fluoro-1H-indazol-4-yl)-1H-1,7-phenanthrolin-2-one] | 4.5
8 | Nc1c(-c2ccc(F)c3[nH]ncc23)c2cc(OC3CCC3)c3ncccc3c2[nH]c1=O [Compound C18, 3-Amino-6-cyclobutyloxy-4-(7-fluoro-1H-indazol-4-yl)-1H-1,7-phenanthrolin-2-one] | 2
9 | Nc1c(-c2ccc(F)c3[nH]ncc23)c2cc(OCCCF)c3ncccc3c2[nH]c1=O [Compound C19, 3-Amino-4-(7-fluoro-1H-indazol-4-yl)-6-(3-fluoropropoxy)-1H-1,7-phenanthrolin-2-one] | 2.2
10 | CC(C)(O)CCOc1cc2c(-c3ccc(F)c4[nH]ncc34)c(N)c(=O)[nH]c2c2cccnc12 [Compound C20, 3-Amino-4-(7-fluoro-1H-indazol-4-yl)-6-(3-hydroxy-3-methylbutoxy)-1H-1,7-phenanthrolin-2-one] | 3.6
11 | Nc1c(-c2ccc(F)c3[nH]ncc23)c2cc(OC(F)F)c3ncccc3c2[nH]c1=O [Compound C21, 3-Amino-6-(difluoromethoxy)-4-(7-fluoro-1H-indazol-4-yl)-1H-1,7-phenanthrolin-2-one] | 2.8
12 | C[C@H](Oc1cc2c(-c3ccc(F)c4[nH]ncc34)c(N)c(=O)[nH]c2c2cccnc12)C(F)(F)F [Compound C22, 3-Amino-4-(7-fluoro-1H-indazol-4-yl)-6-[(2S)-1,1,1-trifluoropropan-2-yl]oxy-1H-1,7-phenanthrolin-2-one] | 7.9
13 | Nc1c(-c2ccc(F)c3[nH]ncc23)c2cc(OC3CC(F)(F)C3)c3ncccc3c2[nH]c1=O [Compound C23, 3-Amino-6-(3,3-difluorocyclobutyl)oxy-4-(7-fluoro-1H-indazol-4-yl)-1H-1,7-phenanthrolin-2-one] | 5
14 | CC(C)(O)COc1cc2c(-c3ccc(F)c4[nH]ncc34)c(N)c(=O)[nH]c2c2cccnc12 [Compound C24, 3-Amino-4-(7-fluoro-1H-indazol-4-yl)-6-(2-hydroxy-2-methylpropoxy)-1H-1,7-phenanthrolin-2-one] | 6.5
15 | Nc1c(-c2ccc(F)c3[nH]ncc23)c2cc(O[C@H]3C[C@@H](F)C3)c3ncccc3c2[nH]c1=O [Compound C28, 3-Amino-4-(7-fluoro-1H-indazol-4-yl)-6-((1s,3s)-3-fluorocyclobutoxy)-1,7-phenanthrolin-2(1H)-one] | 1.8
16 | CO[C@H]1C[C@@H](Oc2cc3c(-c4ccc(F)c5[nH]ncc45)c(N)c(=O)[nH]c3c3cccnc23)C1 [Compound C29, 3-Amino-4-(7-fluoro-1H-indazol-4-yl)-6-((1s,3s)-3-methoxycyclobutoxy)-1,7-phenanthrolin-2(1H)-one] | 3.3
17 | CO[C@H]1C[C@H](Oc2cc3c(-c4ccc(F)c5[nH]ncc45)c(N)c(=O)[nH]c3c3cccnc23)C1 [Compound C30, 3-Amino-4-(7-fluoro-1H-indazol-4-yl)-6-((1r,3r)-3-methoxycyclobutoxy)-1,7-phenanthrolin-2(1H)-one] | 5.8

Next, values leading:

Row | IC50 [nM] | Compound
18 | 2.8 | CC(F)(F)COc1cc2c(-c3ccc(F)c4[nH]ncc34)c(N)c(=O)[nH]c2c2cccnc12 [Compound C25, 3-Amino-6-(2,2-difluoropropoxy)-4-(7-fluoro-1H-indazol-4-yl)-1H-1,7-phenanthrolin-2-one]
19 | 2.3 | COCC(F)(F)COc1cc2c(-c3ccc(F)c4[nH]ncc34)c(N)c(=O)[nH]c2c2cccnc12 [Compound C26, 3-Amino-6-(2,2-difluoro-3-methoxypropoxy)-4-(7-fluoro-1H-indazol-4-yl)-1H-1,7-phenanthrolin-2-one]
20 | 4.4 | C[C@@H](Oc1cc2c(-c3ccc(F)c4[nH]ncc34)c(N)c(=O)[nH]c2c2cccnc12)C(F)(F)F [Compound C27, 3-Amino-4-(7-fluoro-1H-indazol-4-yl)-6-[(2R)-1,1,1-trifluoropropan-2-yl]oxy-1H-1,7-phenanthrolin-2-one]
21 | 4.3 | N#C[C@H]1C[C@H](Oc2cc3c(-c4ccc(F)c5[nH]ncc45)c(N)c(=O)[nH]c3c3cccnc23)C1 [Compound C31, (1r,3r)-3-[[3-Amino-4-(7-fluoro-1H-indazol-4-yl)-2-oxo-1H-1,7-phenanthrolin-6-yl]oxy]cyclobutane-1-carbonitrile]
22 | 3.5 | Nc1c(-c2ccc(F)c3[nH]ncc23)c2cc(OCCC(F)F)c3ncccc3c2[nH]c1=O [Compound C32, 3-Amino-6-(3,3-difluoropropoxy)-4-(7-fluoro-1H-indazol-4-yl)-1H-1,7-phenanthrolin-2-one]
23 | 3.5 | N#C[C@H]1C[C@@H](Oc2cc3c(-c4ccc(F)c5[nH]ncc45)c(N)c(=O)[nH]c3c3cccnc23)C1 [Compound C33, (1s,3s)-3-[[3-Amino-4-(7-fluoro-1H-indazol-4-yl)-2-oxo-1H-1,7-phenanthrolin-6-yl]oxy]cyclobutane-1-carbonitrile]
24 | 3.7 | CC[C@H](C)Oc1cc2c(-c3ccc(F)c4[nH]ncc34)c(N)c(=O)[nH]c2c2cccnc12 [Compound C34, 3-Amino-6-[(2S)-butan-2-yl]oxy-4-(7-fluoro-1H-indazol-4-yl)-1H-1,7-phenanthrolin-2-one]
25 | 4.4 | Nc1c(-c2ccc(F)c3[nH]ncc23)c2cc(OC[C@H]3CCCO3)c3ncccc3c2[nH]c1=O [Compound C35, 3-Amino-4-(7-fluoro-1H-indazol-4-yl)-6-[[(2R)-oxolan-2-yl]methoxy]-1H-1,7-phenanthrolin-2-one]
26 | 3.9 | Nc1c(-c2ccc(F)c3[nH]ncc23)c2cc(OC[C@@H]3CCCO3)c3ncccc3c2[nH]c1=O [Compound C37, 3-Amino-4-(7-fluoro-1H-indazol-4-yl)-6-[[(2S)-oxolan-2-yl]methoxy]-1H-1,7-phenanthrolin-2-one]

From patent US20260062412A1, “NITROGEN-CONTAINING HETEROCYCLIC COMPOUND HAVING MYT1 INHIBITORY ACTIVITY” (CHUGAI SEIYAKU KABUSHIKI KAISHA, priority 2023, published 2026)
